≈ marks a conversion by molar mass, not a printed value.
What was measured:
Klebsiella pneumoniae [1] = experiment: Antimicrobial activity against carbapenem-resistant KPC-2 producing Klebsiella pneumoniae 523transformant by agar dilution method in presence of beta-lactamase inhibitor Tazobactam; assay type: functional
Klebsiella pneumoniae [2] = experiment: Antimicrobial activity against carbapenem-resistant KPC-2 producing Klebsiella pneumoniae 526 ST 376 expressing beta-lactamase SHV-1 by agar dilution method in presence of beta-lactamase inhibitor Tazobactam; assay type: functional
Klebsiella pneumoniae [3] = experiment: Antimicrobial activity against carbapenem-resistant KPC-2 producing Klebsiella pneumoniae 588 transformant by agar dilution method in presence of beta-lactamase inhibitor Tazobactam; assay type: functional
Klebsiella pneumoniae [4] = experiment: Antimicrobial activity against KPC-3 producing Klebsiella pneumoniae 549 transformant by agar dilution method in presence of beta-lactamase inhibitor Tazobactam; assay type: functional
Escherichia coli [5] = experiment: Antimicrobial activity against Escherichia coli Genehogs by agar dilution method in presence of beta-lactamase inhibitor Tazobactam; assay type: functional
Klebsiella pneumoniae [6] = experiment: Antimicrobial activity against carbapenem-resistant KPC-2 producing Klebsiella pneumoniae 525 transformant by agar dilution method in presence of beta-lactamase inhibitor Tazobactam; assay type: functional
Klebsiella pneumoniae [7] = experiment: Antimicrobial activity against KPC-3 producing Klebsiella pneumoniae 549 ST 327 expressing beta-lactamase TEM-1 and CTX-M-2 by agar dilution method in presence of beta-lactamase inhibitor Tazobactam; assay type: functional
Klebsiella pneumoniae [8] = experiment: Antimicrobial activity against KPC-3 producing Klebsiella pneumoniae 557 ST 258 expressing beta-lactamase TEM-1 by agar dilution method in presence of beta-lactamase inhibitor Tazobactam
Klebsiella pneumoniae [9] = experiment: Antimicrobial activity against carbapenem-resistant KPC-2 producing Klebsiella pneumoniae 469 ST 277 expressing beta-lactamase SHV-27, CTX-M-15 and OXA-4 by agar dilution method in presence of beta-lactamase inhibitor Tazobactam; assay type: functional
Klebsiella pneumoniae [10] = experiment: Antimicrobial activity against carbapenem-resistant KPC-2 producing Klebsiella pneumoniae 365 ST 376 expressing beta-lactamase SHV-1, CTX-M-15 and OXA-4 by agar dilution method in presence of beta-lactamase inhibitor Tazobactam
Klebsiella pneumoniae [11] = experiment: Antimicrobial activity against carbapenem-resistant KPC-2 producing Klebsiella pneumoniae 526 transformant by agar dilution method in presence of beta-lactamase inhibitor Tazobactam; assay type: functional
Klebsiella pneumoniae [12] = experiment: Antimicrobial activity against carbapenem-resistant KPC-2 producing Klebsiella pneumoniae 475transformant by agar dilution method in presence of beta-lactamase inhibitor Tazobactam; assay type: functional
Klebsiella pneumoniae [13] = experiment: Antimicrobial activity against carbapenem-resistant KPC-2 producing Klebsiella pneumoniae 365 transformant by agar dilution method in presence of beta-lactamase inhibitor Tazobactam; assay type: functional
Klebsiella pneumoniae [14] = experiment: Antimicrobial activity against carbapenem-resistant KPC-2 producing Klebsiella pneumoniae 475 ST 277 expressing beta-lactamase SHV-27, CTX-M-15 and OXA-4 by agar dilution method in presence of beta-lactamase inhibitor Tazobactam; assay type: functional
Klebsiella pneumoniae [15] = experiment: Antimicrobial activity against carbapenem-resistant KPC-2 producing Klebsiella pneumoniae 523 ST 340 expressing beta-lactamase TEM-1, SHV-11 and OXA-2 by agar dilution method in presence of beta-lactamase inhibitor Tazobactam; assay type: functional
Klebsiella pneumoniae [16] = experiment: Antimicrobial activity against carbapenem-resistant KPC-2 producing Klebsiella pneumoniae 469 transformant by agar dilution method in presence of beta-lactamase inhibitor Tazobactam; assay type: functional
Klebsiella pneumoniae [17] = experiment: Antimicrobial activity against KPC-3 producing Klebsiella pneumoniae 557 transformant by agar dilution method in presence of beta-lactamase inhibitor Tazobactam; assay type: functional
Klebsiella pneumoniae [18] = experiment: Antimicrobial activity against carbapenem-resistant KPC-2 producing Klebsiella pneumoniae 531 transformant by agar dilution method in presence of beta-lactamase inhibitor Tazobactam; assay type: functional
Klebsiella pneumoniae [19] = experiment: Antimicrobial activity against carbapenem-resistant KPC-2 producing Klebsiella pneumoniae 531 ST 376 expressing beta-lactamase SHV-1 by agar dilution method in presence of beta-lactamase inhibitor Tazobactam; assay type: functional
Klebsiella pneumoniae [20] = experiment: Antimicrobial activity against carbapenem-resistant KPC-2 producing Klebsiella pneumoniae 588 ST 340 expressing beta-lactamase TEM-1 and SHV-11 by agar dilution method in presence of beta-lactamase inhibitor Tazobactam; assay type: functional
Klebsiella pneumoniae [21] = experiment: Antimicrobial activity against carbapenem-resistant KPC-2 producing Klebsiella pneumoniae 525 ST 376 expressing beta-lactamase SHV-1 by agar dilution method in presence of beta-lactamase inhibitor Tazobactam; assay type: functional
Klebsiella pneumoniae [22] = experiment: Antimicrobial activity against KPC-3 producing Klebsiella pneumoniae 549 ST 327 expressing beta-lactamase TEM-1 and CTX-M-2 by Etest; assay type: functional
Klebsiella pneumoniae [23] = experiment: Antimicrobial activity against carbapenem-resistant KPC-2 producing Klebsiella pneumoniae 475 ST 277 expressing beta-lactamase SHV-27, CTX-M-15 and OXA-4 by Etest; assay type: functional
Klebsiella pneumoniae [24] = experiment: Antimicrobial activity against carbapenem-resistant KPC-2 producing Klebsiella pneumoniae 531 transformant by Etest; assay type: functional
Klebsiella pneumoniae [25] = experiment: Antimicrobial activity against carbapenem-resistant KPC-2 producing Klebsiella pneumoniae 469 transformant by Etest; assay type: functional
Escherichia coli [26] = experiment: Antimicrobial activity against Escherichia coli Genehogs by Etest; assay type: functional
Klebsiella pneumoniae [27] = experiment: Antimicrobial activity against carbapenem-resistant KPC-2 producing Klebsiella pneumoniae 531 ST 376 expressing beta-lactamase SHV-1 by Etest; assay type: functional
Klebsiella pneumoniae [28] = experiment: Antimicrobial activity against carbapenem-resistant KPC-2 producing Klebsiella pneumoniae 523 transformant by Etest; assay type: functional
Klebsiella pneumoniae [29] = experiment: Antimicrobial activity against carbapenem-resistant KPC-2 producing Klebsiella pneumoniae 588 transformant by Etest; assay type: functional
Klebsiella pneumoniae [30] = experiment: Antimicrobial activity against carbapenem-resistant KPC-2 producing Klebsiella pneumoniae 475 transformant by Etest; assay type: functional
Klebsiella pneumoniae [31] = experiment: Antimicrobial activity against carbapenem-resistant KPC-2 producing Klebsiella pneumoniae 523 ST 340 expressing beta-lactamase TEM-1, SHV-11 and OXA-2 by Etest; assay type: functional
Klebsiella pneumoniae [32] = experiment: Antimicrobial activity against KPC-3 producing Klebsiella pneumoniae 557 ST 258 expressing beta-lactamase TEM-1 by Etest
Klebsiella pneumoniae [33] = experiment: Antimicrobial activity against carbapenem-resistant KPC-2 producing Klebsiella pneumoniae 469 ST 277 expressing beta-lactamase SHV-27, CTX-M-15 and OXA-4 by Etest; assay type: functional
Klebsiella pneumoniae [34] = experiment: Antimicrobial activity against KPC-3 producing Klebsiella pneumoniae 557 transformant by Etest; assay type: functional
Klebsiella pneumoniae [35] = experiment: Antimicrobial activity against carbapenem-resistant KPC-2 producing Klebsiella pneumoniae 365 ST 376 expressing beta-lactamase SHV-1, CTX-M-15 and OXA-4 by Etest
Klebsiella pneumoniae [36] = experiment: Antimicrobial activity against carbapenem-resistant KPC-2 producing Klebsiella pneumoniae 525 ST 376 expressing beta-lactamase SHV-1 by Etest; assay type: functional
Klebsiella pneumoniae [37] = experiment: Antimicrobial activity against carbapenem-resistant KPC-2 producing Klebsiella pneumoniae 525 transformant by Etest; assay type: functional
Klebsiella pneumoniae [38] = experiment: Antimicrobial activity against carbapenem-resistant KPC-2 producing Klebsiella pneumoniae 526 ST 376 expressing beta-lactamase SHV-1 by Etest; assay type: functional
Klebsiella pneumoniae [39] = experiment: Antimicrobial activity against KPC-3 producing Klebsiella pneumoniae 549 transformant by Etest; assay type: functional
Klebsiella pneumoniae [40] = experiment: Antimicrobial activity against carbapenem-resistant KPC-2 producing Klebsiella pneumoniae 365 transformant by Etest; assay type: functional
Klebsiella pneumoniae [41] = experiment: Antimicrobial activity against carbapenem-resistant KPC-2 producing Klebsiella pneumoniae 526 transformant by Etest; assay type: functional
Klebsiella pneumoniae [42] = experiment: Antimicrobial activity against carbapenem-resistant KPC-2 producing Klebsiella pneumoniae 588 ST 340 expressing beta-lactamase TEM-1 and SHV-11 by Etest; assay type: functional

SMILES: CCN1CCN(C(=O)N[C@@H](C(=O)N[C@@H]2C(=O)N3[C@@H]2SC(C)(C)[C@@H]3C(=O)O)c2ccccc2)C(=O)C1=O [PIPERACILLIN]
- MIC (Klebsiella pneumoniae [1]): > 128 µg/mL
- MIC (Klebsiella pneumoniae [2]): > 128 µg/mL
- MIC (Klebsiella pneumoniae [3]): > 128 µg/mL
- MIC (Klebsiella pneumoniae [4]): 64 µg/mL
- MIC (Escherichia coli [5]): < 4 µg/mL
- MIC (Klebsiella pneumoniae [6]): 64 µg/mL
- MIC (Klebsiella pneumoniae [7]): > 320 µg/mL
- MIC (Klebsiella pneumoniae [8]): > 320 µg/mL
- MIC (Klebsiella pneumoniae [9]): > 128 µg/mL
- MIC (Klebsiella pneumoniae [10]): > 128 µg/mL
- MIC (Klebsiella pneumoniae [11]): > 128 µg/mL
- MIC (Klebsiella pneumoniae [12]): > 128 µg/mL
- MIC (Klebsiella pneumoniae [13]): > 128 µg/mL
- MIC (Klebsiella pneumoniae [14]): > 128 µg/mL
- MIC (Klebsiella pneumoniae [15]): 128 µg/mL
- MIC (Klebsiella pneumoniae [16]): > 128 µg/mL
- MIC (Klebsiella pneumoniae [17]): 64 µg/mL
- MIC (Klebsiella pneumoniae [18]): 64 µg/mL
- MIC (Klebsiella pneumoniae [19]): > 128 µg/mL
- MIC (Klebsiella pneumoniae [20]): > 128 µg/mL
- MIC (Klebsiella pneumoniae [21]): > 128 µg/mL

SMILES: CN(C)c1cc(NC(=O)CNC(C)(C)C)c(O)c2c1C[C@H]1C[C@H]3[C@H](N(C)C)C(O)=C(C(N)=O)C(=O)[C@@]3(O)C(O)=C1C2=O [TIGECYCLINE]
- MIC (Klebsiella pneumoniae [22]): 0.75 µg/mL (≈ 1.28 µM)
- MIC (Klebsiella pneumoniae [23]): 4 µg/mL (≈ 6.83 µM)
- MIC (Klebsiella pneumoniae [24]): 0.125 µg/mL (≈ 0.213 µM)
- MIC (Klebsiella pneumoniae [25]): 0.125 µg/mL (≈ 0.213 µM)
- MIC (Escherichia coli [26]): 0.094 µg/mL (≈ 0.161 µM)
- MIC (Klebsiella pneumoniae [27]): 1.5 µg/mL (≈ 2.56 µM)
- MIC (Klebsiella pneumoniae [28]): 0.125 µg/mL (≈ 0.213 µM)
- MIC (Klebsiella pneumoniae [29]): 0.125 µg/mL (≈ 0.213 µM)
- MIC (Klebsiella pneumoniae [30]): 0.125 µg/mL (≈ 0.213 µM)
- MIC (Klebsiella pneumoniae [31]): 0.5 µg/mL (≈ 0.854 µM)
- MIC (Klebsiella pneumoniae [32]): 4 µg/mL (≈ 6.83 µM)
- MIC (Klebsiella pneumoniae [33]): 1 µg/mL (≈ 1.71 µM)
- MIC (Klebsiella pneumoniae [34]): 0.125 µg/mL (≈ 0.213 µM)
- MIC (Klebsiella pneumoniae [35]): 1 µg/mL (≈ 1.71 µM)
- MIC (Klebsiella pneumoniae [36]): 1 µg/mL (≈ 1.71 µM)
- MIC (Klebsiella pneumoniae [37]): 0.125 µg/mL (≈ 0.213 µM)
- MIC (Klebsiella pneumoniae [38]): 1.5 µg/mL (≈ 2.56 µM)
- MIC (Klebsiella pneumoniae [39]): 0.19 µg/mL (≈ 0.324 µM)
- MIC (Klebsiella pneumoniae [40]): 0.125 µg/mL (≈ 0.213 µM)
- MIC (Klebsiella pneumoniae [41]): 0.125 µg/mL (≈ 0.213 µM)
- MIC (Klebsiella pneumoniae [42]): 2 µg/mL (≈ 3.41 µM)

Source: ChEMBL document CHEMBL1275589, “Molecular epidemiology, sequence types, and plasmid analyses of KPC-producing Klebsiella pneumoniae strains in Israel” (2010)
